# In patent US7282522B2, “Hydroxamic acid derivatives and the method for preparing thereof” (Amorepacific Corporation, priority 2003, dated 2007):
# How the values were obtained:
# [1] = test system: elastase; assay: Inhibition of elastase expression in human fibroblasts (ELISA kit); type: cell-based; settings: 10^−4M, 24 hours, serum-free medium, relative to control group = 100
# Protocol: (§1) For each culture fluid, elastase production was measured with elastase kit (commercialized by AmershamPharmacia Biotech). Firstly, the culture fluid was added to 96-well plate spread with primary elastase antibody and then antigen-antibody reaction was performed in an incubator for 3 hours. Later, chromophore-conjugated secondary antibody was added to the 96-well plate and then reacted for 15 minutes. Then, color former was added thereto, to induce development at room temperature for 15 minutes. 1M of sulfuric acid was added to stop the reaction. […] The color density depends on the progress of the reaction. The absorbance of the yellow 96-well plate was measured at 405 nm using absorptiometer. Elastase expression was calculated by the following equation 2. Herein, the absorbance of the culture fluid collected from the medium with no material treated was used as a control. Elastase expression (%)=(Absorbance of test group with said material treated/Absorbance of control group with no material treated)×100 [Equation 2]
# Elastase expression was evaluated as a relative value, in consideration that the value of control group with no material treated is 100.
# [2] = test system: procollagen type I; assay: Effect on collagen biosynthesis (procollagen type I ELISA) in human fibroblasts; type: cell-based; settings: 10^−4M, 24 hours, serum-free medium, relative to control group = 100
# Protocol: Human fibroblasts were seeded into 24-well plate at 1×10^5 cells per well and then cultured to 90% of growth.
# For each supernatant, procollagen production was measured with procollagen type I ELISA kit.
# [3] = test system: collagenase; assay: Inhibition of collagenase expression in human fibroblasts (ELISA kit); type: cell-based; settings: 10^−4M, 24 hours, serum-free medium, relative to control group = 100
# Protocol: Human fibroblasts were seeded into 96-well microtiter plate at 5,000 cells per well and then cultured to 90% of growth in DMEM (Dulbecco's Modified Eagle's Media) supplemented with 2.5% fetal bovine serum. Then, the fibroblastes were cultured in serum-free DMEM for 24 hours and treated for 24 hours with 10^−4M of hydroxamic acid derivatives of Examples 1˜55, retinol or retinoic acid in serum-free medium, and then the culture fluid was collected.
# as §1, with “collagenase” for “elastase”, “Collagenase” for “Elastase”, “1.” for “2.”, “1]” for “2]”
# Collagenase expression was evaluated as a relative value, in consideration that the value of control group with no material treated is 100.
# [4] = molecular target: T1, RARγ (Homo sapiens, UniProt P13631); assay: RARE-luciferase reporter assay in transfected CV-1 cells (affinity to retinoic acid receptor), RARγ; type: cell-based; settings: treated 24 hours at final concentration 10^−4M, control group 5000
# T1 construct: expressed in transfected cells; host or cells: CV-1 cells (ATCC)
# T1 sequence (P13631 1-454): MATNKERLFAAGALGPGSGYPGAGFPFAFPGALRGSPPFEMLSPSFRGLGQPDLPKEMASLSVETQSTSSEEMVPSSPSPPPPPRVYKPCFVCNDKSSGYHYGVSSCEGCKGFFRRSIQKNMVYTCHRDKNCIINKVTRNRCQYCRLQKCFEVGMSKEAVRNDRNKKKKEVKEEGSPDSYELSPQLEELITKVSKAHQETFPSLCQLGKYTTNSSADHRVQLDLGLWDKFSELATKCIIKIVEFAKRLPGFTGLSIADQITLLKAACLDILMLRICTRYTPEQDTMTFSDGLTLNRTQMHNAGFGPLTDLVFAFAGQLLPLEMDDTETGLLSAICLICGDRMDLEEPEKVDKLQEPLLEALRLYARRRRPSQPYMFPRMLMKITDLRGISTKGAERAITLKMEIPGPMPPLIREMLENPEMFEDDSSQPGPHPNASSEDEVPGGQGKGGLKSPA
# Protocol: (§2) Receptor-expression plasmid, pECE-RARα and pECE-RARγ were engineered by the prior method (Mol. Cell. Biol. 1996, 16, 1138-1149). RARE-tk-Luc, i.e. RARE reporter was obtained by inserting RARE fragment from b-RARE-tk-CAT into pGL3 luciferase basic vector. CV-1 cells were obtained from ATCC (American Type Culture Collection).
# (§3) CV-1 cells were seeded into 96-well microtiter plate at 5,000 cells per well and cultured in DMEM (Dulbecco's Modified Eagle's Media) supplemented with 2.5% fetal bovine serum. 24 Hours later, the cells were transfected with 10 ng of pECE-RARα, long of pECE-RARγ, 100 ng of reporter plasmid and 100 ng of β-galactosidase-expression vector, using LipofectaminPlus (GIBCO BRL, grand island, N.Y.).
# [5] = molecular target: T2, RARα (Homo sapiens, UniProt P10276); assay: RARE-luciferase reporter assay in transfected CV-1 cells (affinity to retinoic acid receptor), RARα; type: cell-based; settings: treated 24 hours at final concentration 10^−4M, control group 1000
# T2 construct: expressed in transfected cells; host or cells: CV-1 cells (ATCC)
# T2 sequence (P10276 1-462): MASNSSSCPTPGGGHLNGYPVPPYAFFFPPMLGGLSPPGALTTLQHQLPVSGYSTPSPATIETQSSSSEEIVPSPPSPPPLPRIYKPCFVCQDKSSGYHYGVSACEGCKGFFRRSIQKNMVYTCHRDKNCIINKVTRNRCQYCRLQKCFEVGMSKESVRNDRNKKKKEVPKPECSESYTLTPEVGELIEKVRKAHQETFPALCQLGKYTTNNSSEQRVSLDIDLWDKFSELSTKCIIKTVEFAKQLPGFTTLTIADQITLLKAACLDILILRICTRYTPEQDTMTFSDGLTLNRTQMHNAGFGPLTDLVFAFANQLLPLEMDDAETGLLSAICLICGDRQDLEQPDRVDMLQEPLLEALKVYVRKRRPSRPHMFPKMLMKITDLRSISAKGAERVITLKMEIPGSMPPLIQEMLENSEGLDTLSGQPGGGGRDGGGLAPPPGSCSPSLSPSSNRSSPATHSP
# Excerpt: This example illustrates affinities of hydroxamic acid derivatives obtained in Examples 1 to 55 to retinoic acid receptor, in comparison with retinol and retinoic acid.
# as §2
# as §3, with “N.Y.). 24 Hours post-transfection, the cells were treated for 24 hours with hydroxamic acid derivatives of Examples 1˜55 or retinol at a final concentration of 10^−4M or with retinoic acid at a final concentration of 10^−5M, which is 10 times lower concentration than those of the former.” for “N.Y.).”
# [6] = test system: white guinea pigs; assay: Phototoxicity test (UVA irradiation); settings: for Evaluation (phototoxicity): 1%(w/v) solution, UVA 15 J/cm^2; for Phototoxic index: 50 μl of 1%(w/v) solution, UVA 320~380 nm 15 J/cm^2, observed 24, 48 and 72 hours
# [7] = test system: rabbits; assay: Primary skin irritation test on animals (Draize P.I.I.); settings: depilated back; for P.I.I. (Primary Irritation Index): 0.5 ml of 1% solution in 1,3-butylene glycol:ethanol 7:3, observed 24 or 72 hours later; for Evaluation (skin irritation): 1% solution, according to Draize's P.I.I.
# Protocol: Test was performed using fifty-six (56) of healthy male rabbits whose backs were depilated. […] 0.5ml of the test sample solution was applied to the right site of 2.5 cm×2.5 cm region on each of the depilated back. Left site with no sample treated was compared as a control. 24 hours or 72 hours later, skin abnormality such as erythema, crust and edema was observed.
# Based on the score of skin response, skin irritation was evaluated according to Draize's P.I.I.(Primary Irritation Index) and compared with retinoic acid.
SMILES,Elastase expression (%) [1] [%],Collagen biosynthesis (%) [2] [%],Collagenase expression (%) [3] [%],Luciferase activity RARγ [4],Luciferase activity RARα [5],Evaluation (phototoxicity) [6],Phototoxic index [6],P.I.I. (Primary Irritation Index) [7],Evaluation (skin irritation) [7]
"CC(C)(C)c1ccc(C(=O)Nc2ccc(C(=O)NO)cc2)cc1 [Example 8, N-[4-(N-hydroxycarbamoyl)phenyl][4-tert-butylphenyl]carboxyamide]",69,112,90,12000,10002,"No phototoxicity (lower value than 0.5, criterion value to be estimated as no phototoxicity)",0,0.330,No irritation
"Cc1ccc(C(=O)Nc2ccc(C(=O)NO)cc2)cc1C [Example 9, N-[4-(N-hydroxycarbamoyl)phenyl][3,4-dimethylphenyl]carboxyamide]",67,120,65,12000,12000,"No phototoxicity (lower value than 0.5, criterion value to be estimated as no phototoxicity)",0,0.470,No irritation
"CN(O)C(=O)c1ccc(NC(=O)C23CC4CC(CC(C4)C2)C3)cc1 [Example 11, adamantyl-N-[4-(N-hydroxy-N-methylcarbamoyl)phenyl]carboxyamide]",65,110,81,10000,11600,"No phototoxicity (lower value than 0.5, criterion value to be estimated as no phototoxicity)",0,0.375,No irritation
"CN(C(=O)c1ccccc1)c1ccc(C(=O)NO)cc1 [Example 12, N-[4-(N-hydroxycarbamoyl)phenyl]-N-methyl-benzamide]",80,122,64,11300,14500,"No phototoxicity (lower value than 0.5, criterion value to be estimated as no phototoxicity)",0,0.410,No irritation
"Cc1ccc(C(=O)N(C)c2ccc(C(=O)NO)cc2)cc1 [Example 13, N-[4-(N-hydroxycarbamoyl)phenyl]-N-methyl-[4-methylphenyl]carboxyamide]",84,117,70,11200,12000,"No phototoxicity (lower value than 0.5, criterion value to be estimated as no phototoxicity)",0,0.500,No irritation
"Cc1cccc(C(=O)N(C)c2ccc(C(=O)NO)cc2)c1 [Example 14, N-[4-(N-hydroxycarbamoyl)phenyl]-N-methyl-[3-methylphenyl]carboxyamide]",75,115,72,10300,18000,"No phototoxicity (lower value than 0.5, criterion value to be estimated as no phototoxicity)",0,0.231,No irritation
"CCc1ccc(C(=O)N(C)c2ccc(C(=O)NO)cc2)cc1 [Example 15, N-[4-(N-hydroxycarbamoyl)phenyl]-N-methyl-[4-ethylphenyl]carboxyamide]",76,112,79,10400,14500,"No phototoxicity (lower value than 0.5, criterion value to be estimated as no phototoxicity)",0,0.789,No irritation
CCCc1ccc(C(=O)N(C)c2ccc(C(=O)NO)cc2)cc1 [Example 16],77,120,80,11200,12300,"No phototoxicity (lower value than 0.5, criterion value to be estimated as no phototoxicity)",0,0.567,No irritation
CC(C)c1ccc(C(=O)N(C)c2ccc(C(=O)NO)cc2)cc1 [Example 17],82,111,81,11700,12400,"No phototoxicity (lower value than 0.5, criterion value to be estimated as no phototoxicity)",0,0.123,No irritation
